Activity calls are given as the source filed them. No cut-off for these calls is given here.
What was measured:
Mus musculus [1] = assay: Protection against cardiac dysfunction C57BL/6J mouse model assessed as decrease in DOX-induced serum ALT level at 7 mg/kg, ip administered daily for 4 weeks; assay type: functional, organism-based
RAW264.7 [2] = assay: Antiinflammatory activity in mouse RAW264.7 cells assessed as decrease in LPS-induced iNOS expression preincubated for 1 hr followed by LPS treatment for 24 hrs by Western blot analysis; assay type: functional, cell-based; conditions: dose <= 10.0 µM, time 25.0 hrs
H9c2 [3] = assay: Antiinflammatory activity against rat H9c2 cells assessed as decrease in DOX-induced TNF-alpha expression upto 10 uM preincubated for 1 hr followed by DOX treatment for 12 hrs by Western blot analysis; assay type: functional, cell-based; conditions: time 13.0 hrs
RAW264.7 [4] = assay: Antiinflammatory activity in mouse RAW264.7 cells assessed as LPS-induced NO production preincubated for 1 hr followed by LPS treatment for 24 hrs by Griess reagent based assay; assay type: functional; conditions: time 25 hrs
Mus musculus [5] = assay: Protection against cardiac dysfunction C57BL/6J mouse model assessed as increase in DOX-reduced cardiac SOD1 expression at 7 mg/kg, ip administered daily for 4 weeks by Western blot analysis; assay type: functional, organism-based
RAW264.7 [6] = assay: Inhibition of ROS generation in mouse RAW264.7 cells assessed as increase in DOX-reduced Nrf2 expression upto 10 uM preincubated for 1 hr followed by DOX treatment for 12 hrs by Western blot analysis; assay type: functional, cell-based; conditions: time 13.0 hrs
Mus musculus [7] = assay: Protection against cardiac dysfunction C57BL/6J mouse model assessed as increase in DOX-reduced LVEF at 7 mg/kg, ip administered daily for 4 weeks by echocardiography; assay type: functional, organism-based
Mus musculus [8] = assay: Protection against cardiac dysfunction C57BL/6J mouse model assessed as decrease in DOX-induced serum HBDH level at 7 mg/kg, ip administered daily for 4 weeks; assay type: functional, organism-based
RAW264.7 [9] = assay: Inhibition of ROS generation in mouse RAW264.7 cells preincubated for 1 hr followed by DOX treatment for 12 hrs by DCFH-DA dye based analysis; assay type: functional, cell-based; conditions: dose <= 10.0 µM, time 13.0 hrs
RAW264.7 [10] = assay: Inhibition of ROS generation in mouse RAW264.7 cells assessed as increase in LPS-reduced Nrf2 expression upto 10 uM preincubated for 1 hr followed by LPS treatment for 24 hrs by Western blot analysis; assay type: functional, cell-based; conditions: time 25.0 hrs
H9c2 [11] = assay: Inhibition of ROS generation in rat H9c2 cells assessed as increase in DOX-reduced Nrf2 expression upto 10 uM preincubated for 1 hr followed by DOX treatment for 12 hrs by Western blot analysis; assay type: functional, cell-based; conditions: time 13.0 hrs
RAW264.7 [12] = assay: Antiinflammatory activity against mouse RAW264.7 cells assessed as decrease in LPS-induced TNF-alpha expression upto 10 uM preincubated for 1 hr followed by LPS treatment for 24 hrs by Western blot analysis; assay type: functional, cell-based; conditions: time 25.0 hrs
Mus musculus [13] = assay: Antiinflammatory activity in cardiac dysfunction C57BL/6J mouse model assessed as decrease in DOX-induced NF-kappaB expression at 7 mg/kg, ip administered daily for 4 weeks by Western blot analysis; assay type: functional, organism-based
Mus musculus [14] = assay: Protection against cardiac dysfunction C57BL/6J mouse model assessed as increase in DOX-reduced cardiac CAT expression at 7 mg/kg, ip administered daily for 4 weeks by Western blot analysis; assay type: functional, organism-based
H9c2 [15] = assay: Antiinflammatory activity against rat H9c2 cells assessed as decrease in LPS-induced NF-kappaB phosphorylation upto 10 uM preincubated for 1 hr followed by LPS treatment for 24 hrs by Western blot analysis; assay type: functional, cell-based; conditions: time 25.0 hrs
Mus musculus [16] = assay: Protection against cardiac dysfunction C57BL/6J mouse model assessed as increase in DOX-reduced LVFS at 7 mg/kg, ip administered daily for 4 weeks by echocardiography; assay type: functional, organism-based
Mus musculus [17] = assay: Inhibition of DOX-induced cardiac ROS generation in cardiac dysfunction C57BL/6J mouse model at 7 mg/kg, ip administered daily for 4 weeks by DHE staining based analysis; assay type: functional, organism-based
RAW264.7 [18] = assay: Inhibition of ROS generation in mouse RAW264.7 cells assessed as increase in DOX-reduced CAT expression upto 10 uM preincubated for 1 hr followed by DOX treatment for 12 hrs by Western blot analysis; assay type: functional, cell-based; conditions: time 13.0 hrs
Mus musculus [19] = assay: Protection against cardiac dysfunction C57BL/6J mouse model assessed as decrease in DOX-induced alpha-SMA expression at 7 mg/kg, ip administered daily for 4 weeks by Western blot analysis; assay type: functional, organism-based
Mus musculus [20] = assay: Protection against cardiac dysfunction C57BL/6J mouse model assessed as increase in DOX-reduced cardiac GPX1 expression at 7 mg/kg, ip administered daily for 4 weeks by Western blot analysis; assay type: functional, organism-based
RAW264.7 [21] = assay: Antiinflammatory activity in mouse RAW264.7 cells assessed as decrease in LPS-induced NO production preincubated for 1 hr followed by LPS treatment for 24 hrs by Griess reagent based assay; assay type: functional, cell-based; conditions: dose <= 10.0 µM, time 25.0 hrs
H9c2 [22] = assay: Antiinflammatory activity against rat H9c2 cells assessed as decrease in DOX-induced NF-kappaB phosphorylation upto 10 uM preincubated for 1 hr followed by DOX treatment for 12 hrs by Western blot analysis; assay type: functional, cell-based; conditions: time 13.0 hrs

## CCCCOc1ccc(/C=C/c2cc(OC)cc(OC)c2C2CC(C)=NN2C(C)=O)cc1 (configuration not stated)
Mus musculus [1]
  Activity: Active
RAW264.7 [2]
  Activity: Dose-Dependent Effect
H9c2 [3]
  Activity: Active
RAW264.7 [4]
  Activity: 0.198 µM
Mus musculus [5]
  Activity: Active
RAW264.7 [6]
  inhibition: Active
Mus musculus [7]
  Activity: Active
Mus musculus [8]
  Activity: Active
RAW264.7 [9]
  inhibition: Dose-Dependent Effect
RAW264.7 [10]
  inhibition: Active
H9c2 [11]
  inhibition: Active
RAW264.7 [12]
  Activity: Active
Mus musculus [13]
  Activity: Active
Mus musculus [14]
  Activity: Active
H9c2 [15]
  Activity: Active
Mus musculus [16]
  Activity: Active
Mus musculus [17]
  inhibition: Active
RAW264.7 [18]
  inhibition: Active
Mus musculus [19]
  Activity: Active
Mus musculus [20]
  Activity: Active
RAW264.7 [21]
  Activity: Dose-Dependent Effect
H9c2 [22]
  Activity: Active

— ChEMBL document CHEMBL5620413, “Novel pterostilbene derivatives ameliorate heart failure by reducing oxidative stress and inflammation through regulating Nrf2/NF-κB signaling pathway” (Eur J Med Chem, 2023)
